Test results from patent US10882835B2 (Imago Biosciences, Inc., priority 2013, dated 2021).
pIC50: −log10 of the molar value.

Tests used:
[1] = biological target: KDM1A (LSD1) (Homo sapiens (Human), UniProt O60341); experiment: 10-dose IC50 fluorescence coupling enzyme assay, LSD1 demethylase activity on histone H3(1-21)K4me2 peptide (HRP/Amplex Red); type: biochemical; settings: 10 μM histone H3(1-21)K4me2 peptide substrate
[2] = Metabolic stability in murine liver microsomes; type: in vitro ADME; settings: mouse liver microsomes, 2 μM compound, NADPH
Experimental: The metabolic stability of compounds disclosed herein in pooled human liver microsomes (HLM) and pooled male mouse liver microsomes (MMLM) was determined according to the following protocol, in which the concentrations of compounds in reaction systems were evaluated by LC/MS/MS for estimating the stability in liver microsomes.
Pooled human liver microsomes (HMMCPL; PL050B) and pooled male mouse liver microsomes (MSMCPL; MS033) were purchased from CellzDirect (Invitrogen). Microsomes were stored at −80 C prior to use.
A master solution was prepared containing microsome (stock concentration 5 mg/mL, volume 50 μL, final concentration 0.5 mg/mL), MgCl2 solution (stock concentration 50 mM, volume 50 μL, final concentration 5 mM), phosphate buffer (stock concentration 200 mM, volume 250 μL, final concentration 100 mM), and water (volume […]. Five μL of 200 μM test compounds or control solution (control compound: verapamil) was then added. The final concentration of test compounds or verapamil in the reaction system was 2 μM. The mixture was pre-warmed at 37 C for 5 min.
The reaction was started with the addition of 50 μL of 10 mM NADPH solution at the final concentration of 1 mM and carried out at 37 C. 50 μL of ultra-pure H2O was used instead of NADPH solution in the negative control.
Aliquots of 50 μL were taken from the reaction solution at 0 and 30 min. The reaction was stopped by the addition of 3 volumes of cold methanol with IS (200 nM imipramine, 200 nM labetalol and 2 μM ketoprofen) at the designated time points. Samples were centrifuged at 16,000 g for 10 minutes to precipitate protein. Aliquot of 100 μL of the supernatant was diluted by 100 μL ultra-pure H2O, and the mixture was used for LC/MS/MS analysis. All experiments were performed in duplicate.
Samples were analyzed using liquid chromatography-mass spectrometry. The LC system comprised a Shimadzu liquid chromatograph separation system equipped with degasser DGU-20A3, solvent delivery unit LC-20AD, system controller CBM-20A, column oven CTO-10ASVP and CTC Analytics HTC PAL System. Chromatographic conditions included a Phenomenex column, 5.0μ C18 (2.0×50 mm); a mobile phase of 0.1% formic acid in acetonitrile and 0.1% formic acid in water; an elution rate of 500 μL/min; column temperature 25 C; injection volume 10 μL. Mass spectrometric analysis was performed using an API 4000 instrument from AB Inc. (Canada) with an ESI interface. The data acquisition and control system were created using Analyst 1.5.1 software from ABI Inc. A turbo spray ion source and electrospray ionization were employed in a multiple reaction monitoring (MRM) scan. Additional parameters included: collision gas, 6 L/min; curtain gas, 30 L/min; nebulize gas, 50 L/min; auxiliary gas, 50 L/min; temperature, 500 C; ionspray voltage, +5500 v (positive MRM). Quadripoles Q1 and Q3 were set to 456.2 and 200.2, respectively; declustering potential (DP), entrance potential (EP), and collision cell entrance potential (CE) were set to 120, 10, and 55 v, respectively; collision cell exit potential (CXP) was 12 v.
All calculations were carried out using Microsoft Excel. Peak areas were determined from extracted ion chromatograms. The control compounds were included in the assay. Any value of the compounds that was not within the specified limits was rejected and the experiment was repeated. The reaction system without the cofactors was used to exclude the misleading factor that resulted from instability of chemical itself.

SMILES	pIC50 [1]	% at 30 min, MLM [2]	% at 30 min, MLM ([2]; numeric values of Table 2)
O=C(N[C@@H](CCCCN[C@@H]1C[C@H]1c1ccccc1)C(=O)N1CCCC1)c1ccccc1 [Example 1, N—((S)-1-oxo-6-(((1R,2S)-2-phenylcyclopropyl)amino)-1-(pyrrolidin-1-yl)hexan-2-yl)benzamide]	> 6.00	–	–
O=C(N[C@@H](CCCCN[C@@H]1C[C@H]1c1ccccc1)C(=O)N1CCCCC1)c1ccccc1 [Example 2, N—((S)-1-oxo-6-(((1R,2S)-2-phenylcyclopropyl)amino)-1-(piperidin-1-yl)hexan-2-yl)benzamide]	> 6.00	− (− is <20%)	–
CN1CCN(C(=O)[C@H](CCCCN[C@@H]2C[C@H]2c2ccc(F)cc2)NC(=O)c2ccc(F)cc2)CC1 [Example 3, 4-fluoro-N—((S)-6-(((1R,2S)-2-(4-fluorophenyl)cyclopropyl)amino)-1-(4-methylpiperazin-1-yl)-1-oxohexan-2-yl)benzamide]	> 6.00	+ (+ is ≥20%)	–
CN1CCN(C(=O)[C@H](CCCCN[C@@H]2C[C@H]2c2ccccc2)NC(=O)c2ccccc2)CC1 [Example 4, N—((S)-1-(4-methylpiperazin-1-yl)-1-oxo-6-(((1R,2S)-2-phenylcyclopropyl)amino)hexan-2-yl)benzamide]	> 6.00	+ (+ is ≥20%)	–
CCN(CC)C(=O)[C@H](CCCCN[C@@H]1C[C@H]1c1ccccc1)NC(=O)c1ccccc1 [Example 5]	> 6.00	–	–
O=C(N[C@@H](CCCCN[C@@H]1C[C@H]1c1ccccc1)C(=O)N1CCOCC1)c1ccccc1 [Example 6, N—((S)-1-morpholino-1-oxo-6-(((1R,2S)-2-phenylcyclopropyl)amino)hexan-2-yl)benzamide]	> 6.00	+ (+ is ≥20%)	–
O=C(N[C@@H](CCCCN[C@@H]1C[C@H]1c1ccc(F)cc1)C(=O)N1CCCCC1)c1ccccn1 [Example 7, N-[(2S)-6-[[(1R,2S)-2-(4-fluorophenyl)cyclopropyl]amino]-1-oxo-1-(piperidin-1-yl)hexan-2-yl]pyridine-2-carboxamide]	> 6.00	− (− is <20%)	–
C[C@@]1(NCCCC[C@H](NC(=O)c2ccccc2)C(=O)N2CCN(S(C)(=O)=O)CC2)C[C@H]1c1ccc(F)cc1 [Example 8, N—((S)-6-(((1R,2S)-2-(4-fluorophenyl)-1-methylcyclopropyl)amino)-1-(4-(methylsulfonyl)piperazin-1-yl)-1-oxohexan-2-yl)benzamide]	< 6.00	+ (+ is ≥20%)	65%
O=C(N[C@@H](CCCCN[C@@H]1C[C@H]1c1ccc(F)cc1)C(=O)N1CCCCC1)c1ccccc1 [Example 10, N—((S)-6-(((1R,2S)-2-(4-fluorophenyl)cyclopropyl)amino)-1-oxo-1-(piperidin-1-yl)hexan-2-yl)benzamide]	> 6.00	− (− is <20%)	–
O=C(N[C@@H](CCCCN[C@@H]1C[C@H]1c1ccc(F)cc1)C(=O)N1CCOCC1)c1ccccc1 [Example 11, N—((S)-6-(((1R,2S)-2-(4-fluorophenyl)cyclopropyl)amino)-1-morpholino-1-oxohexan-2-yl)benzamide]	> 6.00	+ (+ is ≥20%)	–
CN1CCN(C(=O)[C@H](CCCCN[C@@H]2C[C@H]2c2ccc(F)cc2)NC(=O)c2ccccc2)CC1 [Example 12, N—((S)-6-(((1R,2S)-2-(4-fluorophenyl)cyclopropyl)amino)-1-(4-methylpiperazin-1-yl)-1-oxohexan-2-yl)benzamide]	> 6.00	+ (+ is ≥20%)	–
O=C(N[C@@H](CCCCN[C@@H]1C[C@H]1c1ccc(F)cc1)C(=O)N1CCCCC1)c1ccc(F)cc1 [Example 13, 4-fluoro-N—((S)-6-(((1R,2S)-2-(4-fluorophenyl)cyclopropyl)amino)-1-oxo-1-(piperidin-1-yl)hexan-2-yl)]	> 6.00	− (− is <20%)	–
O=C(N[C@@H](CCCCN[C@@H]1C[C@H]1c1ccc(F)cc1)C(=O)N1CCCCC1)c1ccc(C(F)(F)F)cc1 [Example 14, N—((S)-6-(((1R,2S)-2-(4-fluorophenyl)cyclopropyl)amino)-1-oxo-1-(piperidin-1-yl)hexan-2-yl)-4-(trifluoromethyl)benzamide]	> 6.00	− (− is <20%)	–
O=C(N[C@@H](CCCCN[C@@H]1C[C@H]1c1ccc(F)cc1)C(=O)N1CCCCC1)c1ccc(-c2ccccc2)cc1 [Example 15, N—((S)-6-(((1R,2S)-2-(4-fluorophenyl)cyclopropyl)amino)-1-oxo-1-(piperidin-1-yl)hexan-2-yl)-[1,1′-biphenyl]-4-carboxamide]	–	− (− is <20%)	–
O=C(N[C@@H](CCCCN[C@@H]1C[C@H]1c1ccc(F)cc1)C(=O)N1CCS(=O)(=O)CC1)c1ccccc1 [Example 16, N—((S)-1-(1,1-dioxidothiomorpholino)-6-(((1R,2S)-2-(4-fluorophenyl)cyclopropyl)amino)-1-oxohexan-2-yl)benzamide]	> 6.00	+ (+ is ≥20%)	–
C[C@@]1(NCCS(=O)(=O)C[C@H](NC(=O)c2ccc(F)cc2)C(=O)N2CCOCC2)C[C@H]1c1ccc(F)cc1 [Example 17, 4-fluoro-N—((R)-3-((2-(((1R,2S)-2-(4-fluorophenyl)-1-methylcyclopropyl)amino)ethyl)sulfonyl)-1-morpholino-1-oxopropan-2-yl)benzamide]	> 6.00	− (− is <20%)	2.7%
O=C(N[C@@H](COCCN[C@@H]1C[C@H]1c1ccc(F)cc1)C(=O)N1CCOCC1)c1ccc(F)cc1 [Example 20, 4-fluoro-N—((S)-3-(2-(((1R,2S)-2-(4-fluorophenyl)cyclopropyl)amino)ethoxy)-1-morpholino-1-oxopropan-2-yl)benzamide]	–	− (− is <20%)	–
O=C(CN[C@@H]1C[C@H]1c1ccc(F)cc1)NC[C@H](NC(=O)c1ccc(F)cc1)C(=O)N1CCOCC1 [Example 21, 4-fluoro-N—((S)-3-(2-(((1R,2S)-2-(4-fluorophenyl)cyclopropyl)amino)acetamido)-1-morpholino-1-oxopropan-2-yl)benzamide]	–	− (− is <20%)	–
O=C(N[C@@H](CCCCN[C@@H]1C[C@H]1c1ccc(F)cc1)C(=O)N1CCCCC1)c1cnc[nH]1 [Example 23, N—((S)-6-((1R,2S)-2-(4-fluorophenyl)cyclopropylamino)-1-oxo-1-(piperidin-1-yl)hexan-2-yl)-1H-imidazole-5-carboxamide]	> 6.00	–	–
CN1CCN(C(=O)[C@H](CCCC(=O)N[C@@H]2C[C@H]2c2ccc(F)cc2)NC(=O)c2ccc(F)cc2)CC1 [Example 24, 4-fluoro-N—((S)-6-((1R,2S)-2-(4-fluorophenyl)cyclopropylamino)-1-(4-methylpiperazin-1-yl)-1,6-dioxohexan-2-yl)benzamide]	–	+ (+ is ≥20%)	–
COc1ccc([C@@H]2C[C@H]2NC(=O)COC[C@H](NC(=O)c2ccc(F)cc2)C(=O)N2CCOCC2)cc1 [Example 25, 4-fluoro-N—((S)-3-(2-((1R,2S)-2-(4-methoxyphenyl)cyclopropylamino)-2-oxoethoxy)-1-morpholino-1-oxopropan-2-yl)benzamide]	–	+ (+ is ≥20%)	–
COc1ccc([C@@H]2C[C@H]2NC(=O)CCC[C@H](NC(=O)c2ccc(F)cc2)C(=O)N2CCN(C)CC2)cc1 [Example 26, 4-fluoro-N—((S)-6-((1R,2S)-2-(4-methoxyphenyl)cyclopropylamino)-1-(4-methylpiperazin-1-yl)-1,6-dioxohexan-2-yl)benzamide]	–	+ (+ is ≥20%)	–
CS(=O)(=O)N1CCN(C(=O)[C@H](CCCN[C@@H]2C[C@H]2c2ccc(F)cc2)NC(=O)c2ccc(F)cc2)CC1 [Example 29, 4-fluoro-N-[(2S)-5-[[(1R,2S)-2-(4-fluorophenyl)cyclopropyl]amino]-1-(4-methanesulfonylpiperazin-1-yl)-1-oxopentan-2-yl]benzamide]	–	− (− is <20%)	–
